Test results taken from patent US6667325B1, “Substituted pyrazole compounds” (Teikoku Hormone Mfg. Co., Ltd., priority 1999, dated 2003).

Compound	melting point
Cn1nc(-c2ccc(F)cc2)c(-c2ccncc2)c1C(O)CCc1ccccc1 (stereo not drawn) [Example 15, 3-(4-Fluorophenyl)-5-(1-hydroxy-3-phenylpropyl)-1-methyl-4-(4-pyridyl)pyrazole]	62 to 65 °C
Fc1ccc(-c2n[nH]c(C=CCc3cccnc3)c2-c2ccncc2)cc1 [Example 26, 3(5)-(4-Fluorophenyl)-4-(4-pyridyl)-5(3)-[3-(3-pyridyl)-1-propenyl]pyrazole]	187 to 188 °C
Cn1nc(-c2ccc(F)cc2)c(-c2ccncc2)c1C=CCc1ccccc1 [Example 29, 3-(4-Fluorophenyl)-1-methyl-5-(3-phenyl-1-propenyl)-4-(4-pyridyl)pyrazole]	136 to 137 °C
Fc1ccc(-c2n[nH]c(CCCc3ccccn3)c2-c2ccncc2)cc1 [Example 40, 3(5)-(4-Fluorophenyl)-4-(4-pyridyl)-5(3)-[3-(2-pyridyl)propyl]pyrazole]	143 to 144.5 °C
Cn1nc(-c2ccc(F)cc2)c(-c2ccncc2)c1CCCc1ccc([N+](=O)[O-])cc1 [Example 56, 3-(4-Fluorophenyl)-1-methyl-5-[3-(4-nitrophenyl)propyl]-4-(4-pyridyl)pyrazole]	129.1 to 131.8 °C
COc1ccc(CNC(=O)c2c(-c3ccncc3)c(-c3ccc(F)cc3)nn2C)cc1 [Example 69, 3-(4-Fluorophenyl)-5-(4-methoxybenzylaminocarbonyl)-1-methyl-4-(4-pyridyl)pyrazole]	162.3 to 164.8 °C
CCN(Cc1ccccc1)C(=O)c1[nH]nc(-c2ccc(F)cc2)c1-c1ccncc1 [Example 74, 5(3)-(N-Ethylbenzylaminocarbonyl)-3(5)-(4-fluorophenyl)-4-(4-pyridyl)pyrazole]	202.9 to 204.6 °C
CCn1nc(-c2ccc(F)cc2)c(-c2ccncc2)c1C(=O)N(C)Cc1ccccc1 [Example 75, 1-Ethyl-5-(N-methylbenzylaminocarbonyl)-3-(4-fluorophenyl)-4-(4-pyridyl)pyrazole]	148 to 149.3 °C
CN(Cc1ccccc1)C(=O)c1c(-c2ccncc2)c(-c2ccc(F)cc2)nn1C [Example 77, 3-(4-Fluorophenyl)-1-methyl-5-(N-methylbenzylaminocarbonyl)-4-(4-pyridyl)pyrazole]	149.1 to 150.2 °C
CN(Cc1ccccc1)C(=O)c1c(-c2ccncc2)c(-c2ccc(F)cc2)nn1CCO [Example 81, 3-(4-Fluorophenyl)-1-(2-hydroxyethyl)-5-(N-methylbenzylaminocarbonyl)-4-(4-pyridyl)pyrazole]	135.9 to 138.1 °C
Fc1ccc(-c2n[nH]c(COCc3ccccc3)c2-c2ccncc2)cc1 [Example 82, 5(3)-(Benzyloxymethyl)-3(5)-(4-fluorophenyl)-4-(4-pyridyl)pyrazole]	177.6 to 180.2 °C
CC(OCc1ccccc1)c1[nH]nc(-c2ccc(F)cc2)c1-c1ccncc1 (stereo not drawn) [Example 83, 5(3)-[1-(Benzyloxy)ethyl]-3(5)-(4-fluorophenyl)-4-(4-pyridyl)pyrazole]	169.2 to 173.5 °C
O=C(Cc1ccccc1)Cc1[nH]nc(-c2ccc(F)cc2)c1-c1ccncc1 [Example 86, 3(5)-(4-Fluorophenyl)-5(3)-(2-oxo-3-phenylpropyl)-4-(4-pyridyl)pyrazole]	187.7 to 193.5 °C
Cn1nc(-c2ccc(F)cc2)c(-c2ccncc2)c1CC(=O)Cc1ccccc1 [Example 87, 3-(4-Fluorophenyl)-1-methyl-5-(2-oxo-3-phenylpropyl)-4-(4-pyridyl)pyrazole]	148.1 to 151 °C

The next lines start with the values.

melting point	Compound
215.5 to 217.5 °C	CC(=Cc1[nH]nc(-c2ccc(F)cc2)c1-c1ccncc1)Cc1cccnc1 [Example 27, 3(5)-(4-Fluorophenyl)-5(3)-[2-methyl-3-(3-pyridyl)-1-propenyl]-4-(4-pyridyl)pyrazole]
155.5 to 156.5 °C	Fc1ccc(-c2n[nH]c(CCCc3ccccc3)c2-c2ccncc2)cc1 [Example 31, 3(5)-(4-Fluorophenyl)-5(3)-(3-phenylpropyl)-4-(4-pyridyl)pyrazole]
207 to 210 °C	Fc1ccc(-c2n[nH]c(CCCc3cccnc3)c2-c2ccncc2)cc1 [Example 43, 3(5)-(4-Fluorophenyl)-4-(4-pyridyl)-5(3)-[3-(3-pyridyl)propyl]pyrazole]
144.5 to 146.5 °C	Fc1ccc(-c2n[nH]c(CCCn3cccn3)c2-c2ccncc2)cc1 [Example 55, 3(5)-(4-Fluorophenyl)-5(3)-[3-(1-pyrazolyl)propyl]-4-(4-pyridyl)pyrazole]
80.5 to 81.1 °C	Cn1nc(-c2ccc(F)cc2)c(-c2ccncc2)c1CCCc1ccc(N)cc1 [Example 57, 5-[3-(4-Aminophenyl)propyl]-3-(4-fluorophenyl)-1-methyl-4-(4-pyridyl)pyrazole]
83 to 87 °C	Cn1nc(-c2ccc(F)cc2)c(-c2ccncc2)c1CCCc1ccccc1 [Example 58, 3-(4-Fluorophenyl)-1-methyl-5-(3-phenylpropyl)-4-(4-pyridyl)pyrazole]
225.8 to 228.4 °C	COc1ccc(CN(C)C(=O)c2[nH]nc(-c3ccc(F)cc3)c2-c2ccncc2)cc1 [Example 73, 3(5)-(4-Fluorophenyl)-5(3)-(N-methyl-4-methoxybenzylaminocarbonyl)-4-(4-pyridyl)pyrazole]
114.9 to 116.7 °C	CCN(Cc1ccccc1)C(=O)c1c(-c2ccncc2)c(-c2ccc(F)cc2)nn1CC [Example 76, 1-Ethyl-5-(N-ethylbenzylaminocarbonyl)-3-(4-fluorophenyl)-4-(4-pyridyl)pyrazole]
150.1 to 152.6 °C	COc1ccc(CN(C)C(=O)c2c(-c3ccncc3)c(-c3ccc(F)cc3)nn2C)cc1 [Example 79, 3-(4-Fluorophenyl)-1-methyl-5-(N-methyl-4-methoxybenzylaminocarbonyl)-4-(4-pyridyl)pyrazole]
144.4 to 146.8 °C	CCn1nc(-c2ccc(F)cc2)c(-c2ccncc2)c1C(=O)N(C)Cc1ccccn1 [Example 80, 1-Ethyl-3-(4-fluorophenyl)-5-(N-methyl-2-pyridylmethylaminocarbonyl)-4-(4-pyridyl)pyrazole]
